Assays:
HEK293 = test: Cytotoxicity against HEK293 cells assessed as reduction in cell viability at 50 uM after 24 hrs by MTT assay relative to control; format: toxicity, cell-based; conditions: human, hek293, 24 h
[1] = biological target: T1, P2X purinoceptor 4 (Homo sapiens) (UniProt Q99571); test: Antagonist activity against human P2X4R stably transfected in human 1321N1 cells at 50 uM incubated for 30 mins by Fura-2 AM staining based calcium influx assay relative to control; format: cell-based; design: scale not given: the % may be the effect or the level left
T1 sequence (whole entry): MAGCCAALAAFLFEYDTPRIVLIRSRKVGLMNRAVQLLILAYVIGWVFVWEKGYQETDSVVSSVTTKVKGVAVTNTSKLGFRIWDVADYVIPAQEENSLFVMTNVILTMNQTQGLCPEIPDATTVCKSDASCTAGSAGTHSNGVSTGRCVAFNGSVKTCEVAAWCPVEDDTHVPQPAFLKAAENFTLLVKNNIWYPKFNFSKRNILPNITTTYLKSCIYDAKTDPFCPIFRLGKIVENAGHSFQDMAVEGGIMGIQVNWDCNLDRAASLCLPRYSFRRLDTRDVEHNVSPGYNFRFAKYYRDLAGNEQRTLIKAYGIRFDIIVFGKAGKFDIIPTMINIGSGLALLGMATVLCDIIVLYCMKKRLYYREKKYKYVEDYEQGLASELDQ

P2X purinoceptor 5 [2] = biological target: T2, P2X purinoceptor 5 (Homo sapiens, UniProt Q93086); test: Antagonist activity against human P2X5R stably transfected in human 1321N1 cells at 50 uM incubated for 30 mins by Fura-2 AM staining based calcium influx assay relative to control; format: cell-based; design: scale not given: the % may be the effect or the level left
T2 sequence (Q93086 whole entry): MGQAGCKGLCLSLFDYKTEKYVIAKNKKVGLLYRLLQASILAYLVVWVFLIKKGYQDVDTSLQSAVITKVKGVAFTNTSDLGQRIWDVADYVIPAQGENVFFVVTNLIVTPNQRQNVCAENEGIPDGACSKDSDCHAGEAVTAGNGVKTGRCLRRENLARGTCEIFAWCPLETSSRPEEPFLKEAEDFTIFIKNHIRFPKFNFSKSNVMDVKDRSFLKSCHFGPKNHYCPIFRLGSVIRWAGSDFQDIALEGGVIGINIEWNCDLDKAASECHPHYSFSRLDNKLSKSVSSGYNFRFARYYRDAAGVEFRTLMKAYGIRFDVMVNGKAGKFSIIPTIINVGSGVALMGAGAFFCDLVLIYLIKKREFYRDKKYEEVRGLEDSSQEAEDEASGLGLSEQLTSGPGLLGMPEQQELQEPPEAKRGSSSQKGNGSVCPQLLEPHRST

[3] = Cytotoxicity against human 1321N1 cells assessed as reduction in cell viability at 50 uM after 24 hrs by MTT assay relative to control; format: toxicity, cell-based; conditions: 1321n1, 24 h
[4] = biological target: T3, P2X purinoceptor 2 (Homo sapiens) (UniProt Q9UBL9); test: Antagonist activity against human P2X2R stably transfected in human 1321N1 cells at 50 uM incubated for 30 mins by Fura-2 AM staining based calcium influx assay relative to control; format: cell-based; design: scale not given: the % may be the effect or the level left
T3 sequence (whole entry): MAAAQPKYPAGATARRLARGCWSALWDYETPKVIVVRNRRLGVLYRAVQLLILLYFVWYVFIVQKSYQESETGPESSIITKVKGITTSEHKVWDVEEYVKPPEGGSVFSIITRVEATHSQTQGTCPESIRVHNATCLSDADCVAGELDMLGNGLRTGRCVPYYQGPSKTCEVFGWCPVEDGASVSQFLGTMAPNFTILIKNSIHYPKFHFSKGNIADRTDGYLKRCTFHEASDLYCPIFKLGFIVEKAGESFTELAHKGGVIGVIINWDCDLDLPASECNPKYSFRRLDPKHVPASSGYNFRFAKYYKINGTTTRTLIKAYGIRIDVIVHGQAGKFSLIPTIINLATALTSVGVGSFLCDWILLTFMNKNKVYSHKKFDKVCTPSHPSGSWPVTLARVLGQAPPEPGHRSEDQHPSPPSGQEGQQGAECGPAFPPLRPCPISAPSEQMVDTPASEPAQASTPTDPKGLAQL

[5] = biological target: T4, P2X purinoceptor 7 (Homo sapiens) (UniProt Q99572); test: Antagonist activity against human P2X7R stably transfected in human 1321N1 cells at 50 uM incubated for 30 mins by Fura-2 AM staining based calcium influx assay relative to control; format: cell-based; design: scale not given: the % may be the effect or the level left
T4 sequence (whole entry): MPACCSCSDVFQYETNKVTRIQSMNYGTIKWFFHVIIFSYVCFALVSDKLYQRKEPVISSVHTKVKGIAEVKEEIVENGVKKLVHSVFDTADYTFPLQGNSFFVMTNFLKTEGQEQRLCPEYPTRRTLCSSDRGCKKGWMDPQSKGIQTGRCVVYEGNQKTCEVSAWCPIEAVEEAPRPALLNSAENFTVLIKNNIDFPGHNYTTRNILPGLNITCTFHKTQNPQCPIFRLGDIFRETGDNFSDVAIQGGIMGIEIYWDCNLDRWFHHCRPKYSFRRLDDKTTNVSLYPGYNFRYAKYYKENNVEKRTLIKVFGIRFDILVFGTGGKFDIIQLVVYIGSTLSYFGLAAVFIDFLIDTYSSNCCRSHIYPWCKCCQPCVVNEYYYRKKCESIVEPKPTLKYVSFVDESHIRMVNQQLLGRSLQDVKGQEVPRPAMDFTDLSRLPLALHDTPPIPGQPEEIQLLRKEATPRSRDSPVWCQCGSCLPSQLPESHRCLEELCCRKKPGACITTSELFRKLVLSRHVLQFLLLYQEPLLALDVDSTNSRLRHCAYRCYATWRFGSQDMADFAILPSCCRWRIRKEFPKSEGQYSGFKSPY

HeLa = test: Cytotoxicity against human HeLa cells assessed as reduction in cell viability at 50 uM after 24 hrs by MTT assay relative to control; format: toxicity, cell-based
P2X purinoceptor 7 [6] = biological target: T5, P2X purinoceptor 7 (Homo sapiens, UniProt Q99572); test: Antagonist activity against human P2X7R stably transfected in human 1321N1 cells incubated for 30 mins by Fura-2 AM staining based calcium influx assay; format: cell-based
T5 sequence (Q99572 whole entry): T4 sequence (whole entry)

P2X purinoceptor 4 = biological target: T6, P2X purinoceptor 4 (Homo sapiens, UniProt Q99571); test: Antagonist activity against human P2X4R stably transfected in human 1321N1 cells incubated for 30 mins by Fura-2 AM staining based calcium influx assay; format: cell-based
T6 sequence (Q99571 whole entry): T1 sequence (whole entry)

P2X purinoceptor 7 [7] = biological target: T5, P2X purinoceptor 7; test: Antagonist activity against human P2X7R stably transfected in human 1321N1 cells assessed as reduction in BzATP-induced activity incubated for 5 to 10 mins by EtBr staining based fluorescence assay; format: cell-based
[8] = biological target: T1, P2X purinoceptor 4 (Homo sapiens); test: Antagonist activity against human P2X4R stably transfected in human 1321N1 cells assessed as ATP Emax at 0.1 uM incubated for 30 mins by Fura-2 AM staining based calcium influx assay relative to control; format: cell-based; conditions: filed as antagonist
[9] = biological target: T1, P2X purinoceptor 4 (Homo sapiens); test: Antagonist activity against human P2X4R stably transfected in human 1321N1 cells assessed as ATP Emax at 0.2 uM incubated for 30 mins by Fura-2 AM staining based calcium influx assay relative to control; format: cell-based; conditions: filed as antagonist
[10] = biological target: T1, P2X purinoceptor 4 (Homo sapiens); test: Antagonist activity against human P2X4R stably transfected in human 1321N1 cells assessed as ATP Emax at 0.05 uM incubated for 30 mins by Fura-2 AM staining based calcium influx assay relative to control; format: cell-based; conditions: filed as antagonist
P2X purinoceptor 5 [11] = biological target: T2, P2X purinoceptor 5; test: Antagonist activity against human P2X5R stably transfected in human 1321N1 cells incubated for 30 mins by Fura-2 AM staining based calcium influx assay; format: cell-based
P2X purinoceptor 2 = biological target: T7, P2X purinoceptor 2 (Homo sapiens, UniProt Q9UBL9); test: Antagonist activity against human P2X2R stably transfected in human 1321N1 cells incubated for 30 mins by Fura-2 AM staining based calcium influx assay; format: cell-based
T7 sequence (Q9UBL9 whole entry): T3 sequence (whole entry)

Compound	Activity (HEK293)	Activity (P2X purinoceptor 5 [2])	Activity [3]	Activity [4]	Activity (HeLa)	IC50 (P2X purinoceptor 7 [6])	IC50 (P2X purinoceptor 4)	further results
COc1ccc(NC(=S)NC(=O)c2ccc3c(c2)OCO3)cc1	7.44%	12%	3.32%	22%	1.38%			Activity ([1]; filed as antagonist): 44%; Activity [5]: 36%
NS(=O)(=O)c1cccc(NC(=S)NC(=O)c2ccc3c(c2)OCO3)c1	4.19%	23%	6.41%	17%	2.52%	110 nM	2170 nM	IC50 (P2X purinoceptor 7 [7]): 173 nM
O=C(NC(=S)Nc1c(Br)ccc(C(F)(F)F)c1Br)c1ccc2c(c1)OCO2	7.24%		7.19%	38%	5.35%	3560 nM	55 nM	Emax [8]: 68%; Emax [9]: 40%; Emax [10]: 90%
O=C(NC(=S)Nc1ccc(Br)cc1)c1ccc2c(c1)OCO2	2.64%	38%	3.72%	35%	7.64%		14300 nM	Activity [1]: 31%; Activity [5]: 22%
CC(C)c1ccc(NC(=S)NC(=O)c2ccc3c(c2)OCO3)c(Br)c1	3.73%	27%	3.83%	35%	4.53%	13100 nM	39 nM	
O=C(O)c1ccc2c(c1)OCO2		10%		21%				Activity [1]: 29%
O=C(NC(=S)Nc1ccc(O)cc1)c1ccc2c(c1)OCO2						902 nM	1450 nM	IC50 (P2X purinoceptor 5 [11]): 27600 nM; IC50 (P2X purinoceptor 7 [7]): 1110 nM
Cc1ccc(C(=O)Nc2ccc(S(=O)(=O)O)c3cc(S(=O)(=O)O)cc(S(=O)(=O)O)c23)cc1NC(=O)c1cccc(NC(=O)Nc2cccc(C(=O)Nc3cc(C(=O)Nc4ccc(S(=O)(=O)O)c5cc(S(=O)(=O)O)cc(S(=O)(=O)O)c45)ccc3C)c2)c1 [SURAMIN]	49.01%		11.56%		11.46%		4730 nM	IC50 (P2X purinoceptor 5 [11]): 15800 nM; IC50 (P2X purinoceptor 2): 14000 nM
O=C(NC(=S)Nc1cc(Cl)c(O)c(Cl)c1)c1ccc2c(c1)OCO2						1640 nM	7640 nM	
O=C(NC(=S)Nc1cccnc1Cl)c1ccc2c(c1)OCO2	6.15%		2.82%		1.94%	34 nM	935 nM	IC50 (P2X purinoceptor 2): 35900 nM; IC50 (P2X purinoceptor 7 [7]): 34 nM
Cc1cc(Br)ccc1NC(=S)NC(=O)c1ccc2c(c1)OCO2	3.38%	25%	7.09%	18%	1.64%		14300 nM	Activity [5]: 34%
O=C(NC(=S)Nc1ccc([N+](=O)[O-])cc1)c1ccc2c(c1)OCO2						1890 nM	3760 nM	IC50 (P2X purinoceptor 5 [11]): 1650 nM
Cc1nc(/N=N/c2ccc(S(=O)(=O)O)cc2S(=O)(=O)O)c(COP(=O)(O)O)c(C=O)c1O	46.58%		12.41%		20.43%			
COc1cccc(NC(=S)NC(=O)c2ccc3c(c2)OCO3)c1	1.95%	25%	4.15%	22%	4.18%			Activity [1]: 19%; Activity [5]: 33%
O=C(NC(=S)Nc1cc(Br)cc(C(F)(F)F)c1)c1ccc2c(c1)OCO2	4.48%	17%	3.34%	22%	5.59%	1250 nM	18200 nM	
CC(C)c1cc(Br)c(NC(=O)Nc2cccnc2)c(Br)c1	25.19%		16.7%		14.81%			Activity ([5]; filed as antagonist): 45%
NS(=O)(=O)c1ccc(CCNC(=S)NC(=O)c2ccc3c(c2)OCO3)cc1	5.77%	32%	5.81%	33%	4.26%	45 nM	1050 nM	IC50 (P2X purinoceptor 7 [7]): 47 nM
O=C(NC(=S)Nc1ccccc1O)c1ccc2c(c1)OCO2							2160 nM	
COc1ccccc1NC(=S)NC(=O)c1ccc2c(c1)OCO2	4.6%	26%	5.41%	39%	1.7%		3670 nM	Activity [5]: 38%

Source: ChEMBL document CHEMBL5137039, “Therapeutic potentials and structure-activity relationship of 1,3-benzodioxole N-carbamothioyl carboxamide derivatives as selective and potent antagonists of P2X4 and P2X7 receptors” (Eur J Med Chem, 2022)
